Measured values reported in publication PMC9728307 (Journal of Microbiology and Biotechnology, 2020).
Structures can show the parent of a compound that is named as a salt. Where two headings read alike, the source gives them in different places. *1 amine or outer side, *2 acyl side, *3 side chain or, on linkers, in order; H or OH if unused. Where a SMILES comes first, the peptide text is derived from it. Bridges are numbered along the chain shown (N, C = ends). [ ]: non-standard residue; d: D form. The star is where a group is joined. hTyr(3S-OH,4S-OH,3'-OSO3H) = N[C@H](C(=O)O)[C@H](O)[C@@H](O)c1ccc(O)c(OS(=O)(=O)O)c1; Orn(4R-OH,5R-OH) = O=C([C@H](C[C@@H](O)[C@@H](O)N[*:3])N[*:1])[*:2]; Pro(3S-OH,4S-Me) = C[C@H]1CN[C@H](C(=O)O)[C@H]1O; X1 = CCCCCOc1ccc(-c2cc(-c3ccc(C(=O)*)cc3)no2)cc1; Gln(3R-OH) = NC(=O)C[C@@H](O)[C@H](N)C(=O)O; Hyp = O=C(O)[C@@H]1C[C@@H](O)CN1

What was measured:
SARS-CoV-2 [1] = assay: microbe, parasite or virus in culture; format: cell-based; settings: for Selectivity Index (SI): CC50/IC50
SARS-CoV-2 [2] = assay: Viral RNA by real-time RT-PCR with primer sets specific to N gene; format: cell-based; settings: virus-infected cells treated with drug
Method: Bromhexine hydrochloride is an inhibitor of TMPRSS2, a cofactor of SARS-CoV-2 entry, and one group reported that the drug was effective on COVID-19 patients in a clinical trial. To further investigate whether bromhexine hydrochloride could inhibit SARS-CoV-2 replication, viral RNA was measured by real-time RT-PCR using primer sets specific to N gene of SARS-CoV-2.
Fig. 4 Suppression of SARS-CoV-2 replication by bromhexine hydrochloride. Cellular RNAs were isolated from cells infected by SARS-COV-2 and treated with bromhexine hydrochloride. The level of viral RNA was measured by real-time RT-PCR using primer sets specific to N gene of SARS-CoV-2.

in vitro = settings: African green monkey, CC50 cell toxicity
SARS-CoV-2 [3] = format: cell-based; settings: Vero cells, 20 μM, MOI 0.5, three days after infection, microscopic observation
Vero cells = settings: read-out: CC50 cell toxicity, MTS, no virus, compounds from secondary screening
[4] = compounds from secondary screening
[5] = Severe acute respiratory syndrome coronavirus 2, Vero, 24 h, read-out: IC50 antiviral activity
[6] = Vero cells, MTS, no virus, compounds from secondary screening
[7] = compounds from primary screening
[8] = Severe acute respiratory syndrome coronavirus 2, Vero, 24 h, Vero cells, MOI 2, 24 h post-infection, compounds from primary screening, 100 μM to 0.16 μM, read-out: IC50 antiviral activity
[9] = Severe acute respiratory syndrome coronavirus 2, Vero, 24 h, Vero cells, MOI 2, 24 h post-infection, compounds from secondary screening, 0.08–50 μM, read-out: IC50 antiviral activity
[10] = Vero cells, MTS, no virus, compounds from primary screening
[11] = Vero cells, MOI 2, 24 h post-infection, compounds from secondary screening, 0.08–50 μM, read-out: IC50 antiviral activity

SMILES	Selectivity Index (SI) (SARS-CoV-2 [1]; [4])	CC50 at 24 h (in vitro; [6]) [µM]	Selectivity Index (SI) (SARS-CoV-2 [1]; [7])	IC50 (SARS-CoV-2 [1]; [9]) [µM]	CC50 at 24 h (in vitro; [10]) [µM]	other results
CN(Cc1cc(Br)cc(Br)c1N)C1CCCCC1 [Bromhexine hydrochloride]	>3.5	> 50				IC50 (SARS-CoV-2 [1]; [5]): 14.4 µM; Level of intracellular viral RNA (SARS-CoV-2 [2]): effectively reduced the intracellular RNA
CCC(CC)COC(=O)[C@H](C)N[P@](=O)(OC[C@H]1O[C@@](C#N)(c2ccc3c(N)ncnn23)[C@H](O)[C@@H]1O)Oc1ccccc1 [Remdesivir]	>10	> 50	>20	5	> 100	IC50 (SARS-CoV-2 [1]; Severe acute respiratory syndrome coronavirus 2, Vero, 24 h, Vero cells, 2 MOI, 24 h post-infection, calibration of the assay with reference compound (Fig. 1), read-out: IC50 antiviral activity): 6 µM; IC50 (SARS-CoV-2 [1]; [8]): 5 µM; Inhibition of viral CPE (SARS-CoV-2 [3]): complete absence of CPE
Cc1ccc(NC(=O)c2ccc(CN3CCN(C)CC3)cc2)cc1Nc1nccc(-c2cccnc2)n1 [Imatinib]		> 50				
CC1=NN(c2ccc(C)c(C)c2)C(=O)/C1=N\Nc1cccc(-c2cccc(C(=O)O)c2)c1O [Eltrombopag]	21.9	43.8		2		
Cc1ccc(NC(=O)c2ccc(CN3CCN(C)CC3)cc2)cc1Nc1nc(-c2cccnc2)cs1 [Masitinib]	3.2	47.1				IC50 (SARS-CoV-2 [1]; [5]): 14.9 µM
CCOC(=O)C1=C[C@]2(CC)CCCN3CCc4c(n1c1ccccc41)[C@@H]32 [Vinpocetine]	>5.8	> 50		8.6		
COC(=O)[C@H]1[C@H]2C[C@@H]3c4[nH]c5cc(OC)ccc5c4CCN3C[C@H]2C[C@@H](OC(=O)c2cc(OC)c(OC)c(OC)c2)[C@@H]1OC [Reserpine]	>1.7	> 50		29.2		
CCCCc1nc(Cl)c(CO)n1Cc1ccc(-c2ccccc2-c2nn[nH]n2)cc1 [Losartan]			>1.4		> 100	IC50 (SARS-CoV-2 [1]; [8]): 72 µM
CCCCOc1cc(C(=O)NCCN(CC)CC)c2ccccc2n1 [Dibucaine hydrochloride]	>2.3			21.6		CC50 at 24 h (in vitro): > 50 µM
CN1CCC(OC(c2ccccc2)c2ccccc2)CC1 [Diphenylpyraline hydrochloride]	>1.2	> 50		42.4		
Cc1ccc(-c2cc(C(F)(F)F)nn2-c2ccc(S(N)(=O)=O)cc2)cc1 [Celecoxib]			4.3		74.8	IC50 (SARS-CoV-2 [1]; [8]): 17.5 µM
CCN(CC)C(C)CN1c2ccccc2Sc2ccccc21 (centres unmarked) [Ethopropazine hydrochloride]	>2.5	> 50		20.3		
CN1CCN(CCCN2c3ccccc3Sc3ccc(S(=O)(=O)N(C)C)cc32)CC1 [Thioproperazine dimesylate]						IC50 (SARS-CoV-2 [1]; [11]): 13.4 µM; CC50 (Vero cells): 41 µM
CC(C)N(CCCCOCC(=O)NS(C)(=O)=O)c1cnc(-c2ccccc2)c(-c2ccccc2)n1 [Selexipag]	>5.9			8.5		CC50 at 24 h (in vitro): > 50 µM
CCN(CC)Cc1cc(Nc2ccnc3cc(Cl)ccc23)ccc1O [Amodiaquine]	>10.9	> 50	>17.2	4.6	> 100	IC50 (SARS-CoV-2 [1]; [8]): 5.8 µM
O=C(O)Cc1cc(I)c(Oc2ccc(O)c(I)c2)c(I)c1 [Tiratricol]	>10.9	> 50				IC50 (SARS-CoV-2 [1]; [5]): 4.6 µM
CC[C@H]1CN2CC[C@H]1C[C@@H]2[C@@H](O)c1ccnc2ccc(OC)cc12 [hydroquinidine]	>2.1	> 50		23.8		
CN(C)C(=O)C(CCN1CCC(O)(c2ccc(Cl)cc2)CC1)(c1ccccc1)c1ccccc1 [Loperamide hydrochloride]		> 50				
O=C(CCCl)NCc1ccccc1 [Beclamide]			>1.4		> 100	IC50 (SARS-CoV-2 [1]; [5]): 72 µM
C=C[C@H]1C[N@@]2CC[C@H]1C[C@@H]2[C@@H](O)c1ccnc2ccc(OC)cc12 [Quinidine gluconate]	>2.1	> 50		24.2		
COc1ccc(CN2CCN(C(c3ccc(F)cc3)c3ccc(F)cc3)CC2)c(OC)c1OC [Lomerizine]			>7.8			IC50 (SARS-CoV-2 [1]; [8]): 12.8 µM; CC50 at 24 h (in vitro): > 100 µM
CC[C@@H](C(=O)[C@@H](C)[C@@H](O)[C@H](C)[C@@H]1O[C@@H]([C@@H](CC)C(=O)O)CC[C@@H]1C)[C@H]1O[C@]2(C=C[C@@H](O)[C@]3(CC[C@@](C)([C@H]4CC[C@](O)(CC)[C@H](C)O4)O3)O2)[C@H](C)C[C@@H]1C [Salinomycin]			97.1		56.3	IC50 (SARS-CoV-2 [1]; [5]): 0.58 µM
CC(C)(C)c1ccc(CN2CCN(C(c3ccccc3)c3ccc(Cl)cc3)CC2)cc1 (centres unmarked) [Buclizine]			>5.1		> 100	IC50 (SARS-CoV-2 [1]; [8]): 19.6 µM
Fc1ccc(C(c2ccc(F)cc2)N2CCN(C/C=C/c3ccccc3)CC2)cc1 [Flunarizine]					> 100	
CN1CC2c3ccccc3Oc3ccc(Cl)cc3C2C1 (centres unmarked) [Asenapine]		> 50				
C=C[C@@]1(C)CC(=O)[C@]2(O)[C@@]3(C)[C@@H](O)CCC(C)(C)[C@@H]3[C@H](OC(=O)CCN(C)C)[C@H](OC(C)=O)[C@@]2(C)O1 [NKH 477]						IC50 (SARS-CoV-2 [1]; [11]): 12.7 µM; CC50 (Vero cells): > 50 µM
Cc1cccc(CN2CCN(C(c3ccccc3)c3ccc(Cl)cc3)CC2)c1 (centres unmarked) [Meclizine]			>17.9		> 100	IC50 (SARS-CoV-2 [1]; [8]): 5.6 µM
CCCS(=O)(=O)Nc1ccc(F)c(C(=O)c2c[nH]c3ncc(-c4ccc(Cl)cc4)cc23)c1F [Vemurafenib (PLX4032), Vemurafenib]	>7.1			7		CC50 at 24 h (in vitro): > 50 µM
CC(CN1c2ccccc2Sc2ccccc21)N(C)C (centres unmarked) [Promethazine hydrochloride]	>2.6	> 50		19.1		
CCCCCOc1ccc(-c2cc(-c3ccc(C(=O)N[C@H]4C[C@@H](O)[C@@H](O)NC(=O)[C@@H]5[C@@H](O)[C@@H](C)CN5C(=O)[C@H]([C@H](O)CC(N)=O)NC(=O)[C@H]([C@H](O)[C@@H](O)c5ccc(O)c(OS(=O)(=O)O)c5)NC(=O)[C@@H]5C[C@@H](O)CN5C(=O)[C@H]([C@@H](C)O)NC4=O)cc3)no2)cc1 [Micafungin] (X1-[Orn(4R-OH,5R-OH)]T[Hyp][hTyr(3S-OH,4S-OH,3'-OSO3H)][Gln(3R-OH)][Pro(3S-OH,4S-Me)]; lactam 1-C)	>3.9	> 50	>18.1		> 100	IC50 (SARS-CoV-2 [1]; Severe acute respiratory syndrome coronavirus 2, Vero, 24 h, read-out: IC50 antiviral activity, Vero cells, MOI 2, 24 h post-infection, compounds from primary screening, 100 μM to 0.16 μM): 5.5 µM; IC50 (SARS-CoV-2 [1]; Severe acute respiratory syndrome coronavirus 2, Vero, 24 h, read-out: IC50 antiviral activity, Vero cells, MOI 2, 24 h post-infection, compounds from secondary screening, 0.08–50 μM): 12.9 µM
